Experimental data from patent US20020019420A1, “Methods and compositions for treating gastric disorders using optically pure (+)-pantoprazole” (Sepracor Inc., priority 1993, published 2002).
Like-named read-outs stand apart in the source and are kept apart here.

How the values were obtained:
[1] = system: endogenous acid secretion; experiment: reduction of endogenous acid secretion in pylorus-ligated rats; type: in vivo, rat
Excerpt: This may increase pantoprazole's selectivity for the acid secreting parietal cells, where low pH conditions exist in the intracellular canaliculi. In intact animals, pantoprazole is active in inhibiting gastric acid secretion in both rats and dogs. Specifically, the intravenous and oral doses required to reduce endogenous acid secretion in pylorus-ligated rats by 50% are in the 1-3 μmole/kg range. […] Racemic pantoprazole is also effective at doses less than 5 μmole/kg in inhibiting exogenously stimulated acid. secretion induced by a variety of agonists, indicating general activity of the drug in inhibiting acid secretion.

[2] = acute toxicity LD50 in mice; type: in vivo
[3] = patients with duodenal ulcers, after four weeks of 20 to 80 mg per day; cited from earlier work
[4] = rats, two year study; cited from earlier work
[5] = neutral and moderately acidic conditions; cited from earlier work
[6] = system: endogenous acid secretion; conditions: pylorus-ligated rats, cited from earlier work
[7] = system: exogenously stimulated acid secretion; conditions: variety of agonists; cited from earlier work
[8] = system: hepatic drug metabolizing enzyme systems; conditions: intact rats and rat microsomal enzyme preparations; cited from earlier work
[9] = humans, short-term administration; cited from earlier work
[10] = rat, cited from earlier work
[11] = cited from earlier work
[12] = weak acid; cited from earlier work
beta-adrenergic = conditions: L-form versus D-enantiomer; cited from earlier work

SMILES: COc1ccnc(C[S+]([O-])c2nc3ccc(OC(F)F)cc3[nH]2)c1OC (racemic) [racemic pantoprazole]
- calculated oral/intravenous (p.o./i.v.) ratio of the 50% doses [1]: approximately 2
- p.o./i.v. LD50 ratio [2]: approximately 2
- ulcer healing [3]: 90-100%
- finding in carcinogenicity study [4]: hepatocellular neoplasia
- chemical stability compared with omeprazole [5]: more chemically stable
- intravenous dose required to reduce endogenous acid secretion by 50% ([6]; intravenous): 1 to 3 µmol/kg
- oral dose required to reduce endogenous acid secretion by 50% ([6]; oral): 1 to 3 µmol/kg
- effective dose inhibiting exogenously stimulated acid secretion [7]: less than 5 μmole/kg
- inhibition of hepatic drug metabolizing enzyme systems compared to omeprazole [8]: weaker inhibitor
- fasting serum gastrin levels [9]: significantly elevated
- oral LD50 ([10]; in vivo, po): > 2,467 μmol/kg
- intravenous LD50 ([10]; intravenous): 632 µmol/kg
- intravenous LD50 ([11]; mice, intravenous): 975 µmol/kg
- oral LD50 ([11]; mouse, in vivo, po): 1,893 μmol/kg

SMILES: COc1ccnc(C[S+]([O-])c2nc3ccc(OC(F)F)cc3[nH]2)c1OC (single isomer, unassigned; (+)) [(+) pantoprazole, (+) isomer of 5-(difluoromethoxy)-2-[[3,4-dimethoxy-2-pyridinyl)methyl]sulfinyl]-1H-benzimidazole]
- PKa [12]: 8.2

SMILES: CC(C)NC[C@H](O)COc1cccc2ccccc12 [L-form of propranolol, propranolol]
- potency relative to the D-enantiomer (beta-adrenergic): 100 times
